Assay results as given in patent US12258327B2, “5-membered heteroaryl-containing aminopyridine compounds as EGFR inhibitors” (YUHAN CORPORATION, priority 2021, dated 2025).
Where two headings read alike, the source gives them in different places.

Experiments:
EGFR del19/T790M/C797S = EGFR del19/T790M/C797S (Homo sapiens, UniProt P00533, C797S/DEL746-750/T790M); assay: Biochemical EGFR kinase assay (Lance Ultra TR-FRET), triple mutant del19/T790M/C797S
In short: (§1)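 In this biochemical assay, phosphorylation after a one-hour room-temperature reaction was detected with europium-labelled anti-phosphopeptide antibody at 2 nM final concentration.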

EGFR L858R/T790M/C797S = EGFR L858R/T790M/C797S (Homo sapiens, UniProt P00533, C797S/L858R/T790M); assay: Biochemical EGFR kinase assay (Lance Ultra TR-FRET), triple mutant L858R/T790M/C797S
In short: as §1

EGFR del19/C797S = EGFR del19/C797S (Homo sapiens, UniProt P00533, C797S/DEL746-750); assay: Biochemical EGFR kinase assay (Lance Ultra TR-FRET), double mutant del19/C797S
In short: as §1

EGFR L858R/C797S = EGFR L858R/C797S (Homo sapiens, UniProt P00533, C797S/L858R); assay: Biochemical EGFR kinase assay (Lance Ultra TR-FRET), double mutant L858R/C797S
In short: as §1

EGFR wildtype (WT) = EGFR wildtype (WT) (Homo sapiens, UniProt P00533); assay: Biochemical EGFR kinase assay (Lance Ultra TR-FRET), wildtype
In short: as §1

[1] = IC50 del19/T790M/C797S (nM) 100 μM ATP, 100 μM ATP
[2] = Km ATP, read-out: IC50 del19/T790M/C797S (nM) Km ATP
[3] = IC50 L858R/T790M/C797S (nM) 100 μM ATP, 100 μM ATP
[4] = Km ATP, read-out: IC50 L858R/T790M/C797S (nM) Km ATP
[5] = IC50 del19/C797S (nM) 100 μM ATP, 100 μM ATP
[6] = Km ATP, read-out: IC50 del19/C797S (nM) Km ATP
[7] = IC50 L858R/C797S (nM) 100 μM ATP, 100 μM ATP
[8] = Km ATP, read-out: IC50 L858R/C797S (nM) Km ATP
[9] = IC50 WT (nM) 100 μM ATP, 100 μM ATP
[10] = Km ATP, read-out: IC50 WT (nM) Km ATP

EGFR wildtype (WT), sequence (P00533 25-1210): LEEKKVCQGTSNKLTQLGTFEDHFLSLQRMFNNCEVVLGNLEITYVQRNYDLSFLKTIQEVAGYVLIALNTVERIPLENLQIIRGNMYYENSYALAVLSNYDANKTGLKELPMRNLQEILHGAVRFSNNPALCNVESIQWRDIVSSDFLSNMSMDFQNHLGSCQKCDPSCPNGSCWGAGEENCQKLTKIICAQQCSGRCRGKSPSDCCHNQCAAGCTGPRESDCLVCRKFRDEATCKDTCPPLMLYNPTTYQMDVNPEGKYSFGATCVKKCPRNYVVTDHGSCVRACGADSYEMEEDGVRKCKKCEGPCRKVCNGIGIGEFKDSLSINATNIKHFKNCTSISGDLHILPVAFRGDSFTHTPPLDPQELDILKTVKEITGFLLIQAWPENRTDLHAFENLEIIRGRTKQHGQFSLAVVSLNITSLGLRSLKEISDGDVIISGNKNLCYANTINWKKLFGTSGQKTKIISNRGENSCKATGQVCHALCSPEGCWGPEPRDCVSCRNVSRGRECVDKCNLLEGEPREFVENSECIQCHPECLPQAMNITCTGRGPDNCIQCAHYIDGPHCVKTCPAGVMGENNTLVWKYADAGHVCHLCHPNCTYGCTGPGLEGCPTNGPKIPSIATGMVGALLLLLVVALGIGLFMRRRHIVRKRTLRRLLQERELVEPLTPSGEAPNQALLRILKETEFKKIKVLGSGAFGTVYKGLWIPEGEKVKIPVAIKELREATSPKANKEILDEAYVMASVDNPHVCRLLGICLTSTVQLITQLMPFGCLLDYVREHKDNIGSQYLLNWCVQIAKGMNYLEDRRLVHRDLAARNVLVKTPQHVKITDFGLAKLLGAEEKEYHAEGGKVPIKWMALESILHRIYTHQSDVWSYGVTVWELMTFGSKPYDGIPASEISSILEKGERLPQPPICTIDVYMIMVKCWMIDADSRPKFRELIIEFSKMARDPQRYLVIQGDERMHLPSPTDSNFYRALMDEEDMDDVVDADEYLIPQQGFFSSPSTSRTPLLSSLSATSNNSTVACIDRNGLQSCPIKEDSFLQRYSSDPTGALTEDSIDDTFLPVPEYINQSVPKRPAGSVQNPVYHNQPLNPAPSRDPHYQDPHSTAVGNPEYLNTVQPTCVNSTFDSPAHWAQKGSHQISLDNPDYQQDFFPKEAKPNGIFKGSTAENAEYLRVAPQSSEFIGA
EGFR del19/T790M/C797S, sequence (P00533 with tags, fused parts or gaps DEL746-750/T790M/C797S): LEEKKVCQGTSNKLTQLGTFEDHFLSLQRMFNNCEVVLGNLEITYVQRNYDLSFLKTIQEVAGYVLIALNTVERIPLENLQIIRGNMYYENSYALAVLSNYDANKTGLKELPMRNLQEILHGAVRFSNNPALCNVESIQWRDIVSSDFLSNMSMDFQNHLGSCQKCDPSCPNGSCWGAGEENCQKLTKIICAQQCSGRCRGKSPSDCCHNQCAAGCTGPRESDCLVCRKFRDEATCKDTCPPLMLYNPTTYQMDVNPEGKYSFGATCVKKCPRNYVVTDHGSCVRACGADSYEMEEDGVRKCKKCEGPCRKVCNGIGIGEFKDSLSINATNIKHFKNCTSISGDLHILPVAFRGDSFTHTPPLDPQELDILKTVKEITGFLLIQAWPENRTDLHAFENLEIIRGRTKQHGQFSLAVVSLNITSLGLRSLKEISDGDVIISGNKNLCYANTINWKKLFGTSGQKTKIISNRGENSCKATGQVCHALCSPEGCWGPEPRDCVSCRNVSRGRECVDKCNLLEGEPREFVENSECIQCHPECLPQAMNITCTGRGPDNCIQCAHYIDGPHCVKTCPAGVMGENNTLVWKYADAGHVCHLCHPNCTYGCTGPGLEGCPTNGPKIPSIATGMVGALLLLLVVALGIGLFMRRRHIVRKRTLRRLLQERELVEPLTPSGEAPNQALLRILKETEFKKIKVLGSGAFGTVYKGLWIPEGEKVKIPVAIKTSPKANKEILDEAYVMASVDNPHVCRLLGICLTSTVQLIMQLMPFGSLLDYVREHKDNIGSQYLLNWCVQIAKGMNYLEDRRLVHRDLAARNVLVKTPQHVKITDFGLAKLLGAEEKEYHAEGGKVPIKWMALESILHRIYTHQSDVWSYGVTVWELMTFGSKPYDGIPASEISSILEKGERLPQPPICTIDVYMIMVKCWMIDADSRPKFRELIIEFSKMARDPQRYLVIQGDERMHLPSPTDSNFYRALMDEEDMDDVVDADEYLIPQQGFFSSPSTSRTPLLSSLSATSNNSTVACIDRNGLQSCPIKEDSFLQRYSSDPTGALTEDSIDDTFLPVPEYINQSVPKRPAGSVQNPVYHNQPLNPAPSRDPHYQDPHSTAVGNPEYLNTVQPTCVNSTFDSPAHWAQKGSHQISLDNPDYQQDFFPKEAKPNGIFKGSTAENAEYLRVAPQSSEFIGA
EGFR L858R/C797S, sequence (P00533 25-1210 C797S/L858R): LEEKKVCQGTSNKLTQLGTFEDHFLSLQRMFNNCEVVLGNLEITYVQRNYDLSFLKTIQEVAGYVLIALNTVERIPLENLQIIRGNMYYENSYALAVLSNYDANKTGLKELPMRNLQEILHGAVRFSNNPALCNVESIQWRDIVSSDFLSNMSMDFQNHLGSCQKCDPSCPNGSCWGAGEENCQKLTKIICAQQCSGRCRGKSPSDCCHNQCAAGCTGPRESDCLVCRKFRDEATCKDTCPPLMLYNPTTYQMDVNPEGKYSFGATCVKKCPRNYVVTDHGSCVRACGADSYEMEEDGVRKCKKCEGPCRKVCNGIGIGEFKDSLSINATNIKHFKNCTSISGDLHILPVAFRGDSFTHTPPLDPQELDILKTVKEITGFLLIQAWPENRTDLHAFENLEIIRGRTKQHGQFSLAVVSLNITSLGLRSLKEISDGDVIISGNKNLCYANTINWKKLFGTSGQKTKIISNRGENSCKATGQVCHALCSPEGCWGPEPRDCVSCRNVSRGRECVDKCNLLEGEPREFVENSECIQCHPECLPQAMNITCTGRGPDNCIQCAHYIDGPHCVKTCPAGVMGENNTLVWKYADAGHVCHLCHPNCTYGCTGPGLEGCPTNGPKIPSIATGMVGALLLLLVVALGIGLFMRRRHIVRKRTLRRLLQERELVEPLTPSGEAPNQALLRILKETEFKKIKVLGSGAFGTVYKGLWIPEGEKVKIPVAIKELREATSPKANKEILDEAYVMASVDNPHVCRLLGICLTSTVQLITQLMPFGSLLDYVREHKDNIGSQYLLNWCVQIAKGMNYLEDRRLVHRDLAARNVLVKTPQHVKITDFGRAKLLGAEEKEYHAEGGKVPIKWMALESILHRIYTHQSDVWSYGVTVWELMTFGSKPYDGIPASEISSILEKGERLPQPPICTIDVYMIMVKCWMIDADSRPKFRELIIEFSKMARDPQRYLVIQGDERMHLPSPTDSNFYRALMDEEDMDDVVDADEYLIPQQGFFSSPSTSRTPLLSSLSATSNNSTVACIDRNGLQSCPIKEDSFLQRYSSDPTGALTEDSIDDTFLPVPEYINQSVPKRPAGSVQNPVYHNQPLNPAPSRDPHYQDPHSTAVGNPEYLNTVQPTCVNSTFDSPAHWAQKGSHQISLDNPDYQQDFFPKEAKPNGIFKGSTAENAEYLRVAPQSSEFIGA
EGFR del19/C797S, sequence (P00533 with tags, fused parts or gaps DEL746-750/C797S): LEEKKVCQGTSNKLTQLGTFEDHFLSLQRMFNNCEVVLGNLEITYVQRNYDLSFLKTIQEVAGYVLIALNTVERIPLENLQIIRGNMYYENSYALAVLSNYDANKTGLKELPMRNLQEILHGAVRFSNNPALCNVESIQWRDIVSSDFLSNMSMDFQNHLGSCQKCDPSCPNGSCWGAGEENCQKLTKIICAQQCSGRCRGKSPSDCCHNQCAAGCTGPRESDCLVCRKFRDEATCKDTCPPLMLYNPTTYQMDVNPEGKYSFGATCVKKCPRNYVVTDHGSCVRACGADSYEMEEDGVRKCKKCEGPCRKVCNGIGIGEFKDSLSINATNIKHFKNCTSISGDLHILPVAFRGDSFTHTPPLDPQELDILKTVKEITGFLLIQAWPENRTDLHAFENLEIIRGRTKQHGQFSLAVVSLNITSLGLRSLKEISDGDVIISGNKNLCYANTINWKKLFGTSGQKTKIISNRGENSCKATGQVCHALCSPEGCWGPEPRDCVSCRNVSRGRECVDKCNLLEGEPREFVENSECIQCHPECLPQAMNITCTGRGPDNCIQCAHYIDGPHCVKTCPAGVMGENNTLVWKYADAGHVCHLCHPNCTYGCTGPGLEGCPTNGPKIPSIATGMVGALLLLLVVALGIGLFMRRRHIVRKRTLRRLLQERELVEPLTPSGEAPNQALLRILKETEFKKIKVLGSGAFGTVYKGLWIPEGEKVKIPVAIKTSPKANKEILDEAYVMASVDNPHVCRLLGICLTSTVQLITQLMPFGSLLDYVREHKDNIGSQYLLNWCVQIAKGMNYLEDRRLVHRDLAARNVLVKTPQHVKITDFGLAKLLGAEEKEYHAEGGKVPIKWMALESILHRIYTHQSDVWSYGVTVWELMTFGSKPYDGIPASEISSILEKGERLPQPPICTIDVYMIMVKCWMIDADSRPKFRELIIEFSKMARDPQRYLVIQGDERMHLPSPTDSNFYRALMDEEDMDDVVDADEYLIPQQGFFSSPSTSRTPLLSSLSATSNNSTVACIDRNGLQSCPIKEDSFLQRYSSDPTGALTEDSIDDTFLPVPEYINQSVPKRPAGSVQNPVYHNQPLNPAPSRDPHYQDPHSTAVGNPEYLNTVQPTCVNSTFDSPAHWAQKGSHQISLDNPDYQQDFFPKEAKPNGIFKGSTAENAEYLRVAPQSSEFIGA

Row | Structure (SMILES) | IC50 (EGFR del19/T790M/C797S; [1]) [nM] | IC50 (EGFR del19/T790M/C797S; [2]) [nM] | IC50 (EGFR L858R/T790M/C797S; [3]) [nM] | IC50 (EGFR L858R/T790M/C797S; [4]) [nM] | IC50 (EGFR del19/C797S; [5]) [nM] | IC50 (EGFR del19/C797S; [6]) [nM] | IC50 (EGFR L858R/C797S; [7]) [nM] | IC50 (EGFR L858R/C797S; [8]) [nM] | IC50 (EGFR wildtype (WT); [9]) [nM] | IC50 (EGFR wildtype (WT); [10]) [nM] | IC50 (EGFR del19/T790M/C797S; IC50 del19/T790M/C797S, 100 μM ATP) [nM] | IC50 (EGFR del19/T790M/C797S; Km ATP, read-out: IC50 del19/T790M/C797S, Km ATP) [nM] | IC50 (EGFR L858R/T790M/C797S; IC50 L858R/T790M/C797S, 100 μM ATP) [nM] | IC50 (EGFR L858R/T790M/C797S; Km ATP, read-out: IC50 L858R/T790M/C797S, Km ATP) [nM] | IC50 (EGFR del19/C797S; IC50 del19/C797S, 100 μM ATP) [nM] | IC50 (EGFR del19/C797S; Km ATP, read-out: IC50 del19/C797S, Km ATP) [nM] | IC50 (EGFR L858R/C797S; IC50 L858R/C797S, 100 μM ATP) [nM] | IC50 (EGFR L858R/C797S; Km ATP, read-out: IC50 L858R/C797S, Km ATP) [nM] | IC50 (EGFR wildtype (WT); IC50 WT, 100 μM ATP) [nM] | IC50 (EGFR wildtype (WT); Km ATP, read-out: IC50 WT, Km ATP) [nM]
1 | O=S(=O)(C1CC1)n1cc(-c2nccc(Nc3cc(NC4CCCN(CCF)C4)c(-c4ccn(C(F)F)n4)cn3)n2)cn1 (stereo not drawn) [Example 218, N^2-(2-(1-(Cyclopropylsulfonyl)-1H-pyrazol-4-yl)pyrimidin-4-yl)-5-(1-(difluoromethyl)-1H-pyrazol-3-yl)-N^4-(1-(2-fluoroethyl)piperidin-3-yl)pyridine-2,4-diamine] | – | 0.5 | – | 0.8 | – | 43.9 | – | 30.7 | – | 233 | – | – | – | – | – | – | – | – | – | –
2 | C[C@]1(O)CC[C@@H](Nc2cc(Nc3ccnc(-c4cnn(S(=O)(=O)C5CC5)c4)n3)ncc2-n2ccc(C(F)(F)F)n2)CC1 [Example 167, (1s,4s)-4-((2-((2-(1-(Cyclopropylsulfonyl)-1H-pyrazol-4-yl)pyrimidin-4-yl)amino)-5-(3-(trifluoromethyl)-1H-pyrazol-1-yl)pyridin-4-yl)amino)-1-methylcyclohexan-1-ol] | – | 0.6 | – | 0.4 | – | 58.9 | – | 47.7 | – | 129 | – | – | – | – | – | – | – | – | – | –
3 | C[C@]1(O)CC[C@@H](Nc2cc(Nc3ccnc(-c4cnn(S(=O)(=O)N5CC(F)C5)c4)n3)ncc2-c2ccn(C(F)F)n2)CC1 [Example 324, (1s,4s)-4-((5-(1-(Difluoromethyl)-1H-pyrazol-3-yl)-2-((2-(1-((3-fluoroazetidin-1-yl)sulfonyl)-1H-pyrazol-4-yl)pyrimidin-4-yl)amino)pyridin-4-yl)amino)-1-methylcyclohexan-1-ol] | – | 4.6 | – | 1.7 | – | 66.9 | – | 13.2 | – | 55.5 | – | – | – | – | – | – | – | – | – | –

Second part, the compound after the results:

Row | IC50 (EGFR del19/T790M/C797S; [1]) [nM] | IC50 (EGFR del19/T790M/C797S; [2]) [nM] | IC50 (EGFR L858R/T790M/C797S; [3]) [nM] | IC50 (EGFR L858R/T790M/C797S; [4]) [nM] | IC50 (EGFR del19/C797S; [5]) [nM] | IC50 (EGFR del19/C797S; [6]) [nM] | IC50 (EGFR L858R/C797S; [7]) [nM] | IC50 (EGFR L858R/C797S; [8]) [nM] | IC50 (EGFR wildtype (WT); [9]) [nM] | IC50 (EGFR wildtype (WT); [10]) [nM] | IC50 (EGFR del19/T790M/C797S; IC50 del19/T790M/C797S, 100 μM ATP) [nM] | IC50 (EGFR del19/T790M/C797S; Km ATP, read-out: IC50 del19/T790M/C797S, Km ATP) [nM] | IC50 (EGFR L858R/T790M/C797S; IC50 L858R/T790M/C797S, 100 μM ATP) [nM] | IC50 (EGFR L858R/T790M/C797S; Km ATP, read-out: IC50 L858R/T790M/C797S, Km ATP) [nM] | IC50 (EGFR del19/C797S; IC50 del19/C797S, 100 μM ATP) [nM] | IC50 (EGFR del19/C797S; Km ATP, read-out: IC50 del19/C797S, Km ATP) [nM] | IC50 (EGFR L858R/C797S; IC50 L858R/C797S, 100 μM ATP) [nM] | IC50 (EGFR L858R/C797S; Km ATP, read-out: IC50 L858R/C797S, Km ATP) [nM] | IC50 (EGFR wildtype (WT); IC50 WT, 100 μM ATP) [nM] | IC50 (EGFR wildtype (WT); Km ATP, read-out: IC50 WT, Km ATP) [nM] | Structure (SMILES)
4 | 1.3 | 0.3 | 0.9 | 0.2 | 0.7 | 0.3 | 8.9 | 0.9 | 5010 | 5.4 | – | – | – | – | – | – | – | – | – | – | O=S(=O)(C1CC1)n1cc(-c2nccc(Nc3cc(N[C@H]4CCC[C@H](O)C4)c(-c4ccn(C(F)F)n4)cn3)n2)cn1 [Example 21, (1S,3S)-3-((2-((2-(1-(Cyclopropylsulfonyl)-1H-pyrazol-4-yl)pyrimidin-4-yl)amino)-5-(1-(difluoromethyl)-1H-pyrazol-3-yl)pyridin-4-yl)amino)cyclohexan-1-ol]
5 | – | – | – | – | – | – | – | – | – | – | 3.1 | 1.9 | 1.9 | 0.7 | 329 | 99 | 449 | 48.2 | > 10000 | 400 | CC1(O)CCC(Nc2cc(Nc3ccnc(N4CC(CO)C(C)(C)C4)n3)ncc2-c2ccn(C(F)F)n2)CC1 (stereo not drawn) [Example 347, (1s,4s)-4-((5-(1-(Difluoromethyl)-1H-pyrazol-3-yl)-2-((2-(4-(hydroxymethyl)-3,3-dimethylpyrrolidin-1-yl)pyrimidin-4-yl)amino)pyridin-4-yl)amino)-1-methylcyclohexan-1-ol]
6 | 2.1 | 7.2 | 1.2 | 0.7 | 2700 | 23.6 | 35.4 | 11.2 | > 10000 | 620 | – | – | – | – | – | – | – | – | – | – | O=S(=O)(C1CC1)n1cc(-c2nccc(Nc3cc(N[C@H]4CC[C@H](CCO)CC4)c(-c4ccn(CC(F)(F)F)n4)cn3)n2)cn1 [Example 270, 2-((1r,4r)-4-((2-((2-(1-(Cyclopropylsulfonyl)-1H-pyrazol-4-yl)pyrimidin-4-yl)amino)-5-(1-(2,2,2-trifluoroethyl)-1H-pyrazol-3-yl)pyridin-4-yl)amino)cyclohexyl)ethan-1-ol]
